Test results taken from patent US11884676B2, “Substituted pyrimido[1,2-b]pyridazines as positive allosteric modulators of the muscarinic acetylcholine receptor M4” (Vanderbilt University, priority 2020, dated 2024).
pEC50: −log10 of the molar value.

Target: T1, Human M4 (Homo sapiens, UniProt P08173)
T1 construct: expressed in transfected cells
T1 sequence (P08173 1-479): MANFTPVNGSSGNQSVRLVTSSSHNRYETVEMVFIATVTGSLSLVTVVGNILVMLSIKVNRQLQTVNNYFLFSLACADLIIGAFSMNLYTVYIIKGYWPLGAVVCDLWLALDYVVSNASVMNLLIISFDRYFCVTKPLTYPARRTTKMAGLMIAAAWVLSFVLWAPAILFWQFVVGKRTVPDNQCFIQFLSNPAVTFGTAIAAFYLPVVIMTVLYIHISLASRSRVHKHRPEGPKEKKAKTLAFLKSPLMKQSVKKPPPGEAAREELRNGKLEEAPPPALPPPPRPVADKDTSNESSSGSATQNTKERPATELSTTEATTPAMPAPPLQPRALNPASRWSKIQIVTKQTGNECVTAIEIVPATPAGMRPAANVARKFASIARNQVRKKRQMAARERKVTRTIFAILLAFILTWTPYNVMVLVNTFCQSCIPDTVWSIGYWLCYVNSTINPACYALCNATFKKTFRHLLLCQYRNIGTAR
Test: mAChR M4 cell-based functional assay (calcium flux, PAM mode)
Conditions: hM4-Gqi5 CHO-K1 cells; for Emax at 30 µM: CHO-K1, % ACh maximum at 30 μM; for pEC50: concentration-dependent increase in the EC20 acetylcholine response
Procedure, shortened: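 PAM potency (EC50) and Emax came from four-parameter fits of the rise in EC20 acetylcholine-evoked calcium signal (Fluo-4, FDSS, 1 Hz). Human M4/Gqi5 CHO-K1 stable line; 11-point 1:3 compound series preceded ACh EC20 addition at 144 s, with EC80 ACh added at 230 s.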

SMILES | Emax at 30 µM [%] | pEC50
[2H]C1([2H])Oc2ccc(O[C@@H]3CCN(c4nn5c(=O)cc(COC)nc5c(C)c4C)C[C@H]3F)cc2OC1([2H])[2H] [Compound 124, 7-((3R,4R)-4-((2,3-dihydrobenzo[b][1,4]dioxin-6-yl-2,2,3,3-d4)oxy)-3-fluoropiperidin-1-yl)-2-(methoxymethyl)-8,9-dimethyl-4H-pyrimido[1,2-b]pyridazin-4-one] | 109 | 7.00
[2H]C1(Oc2ccc3c(c2)OC([2H])([2H])C([2H])([2H])O3)CCN(c2nn3c(=O)ccnc3c(C)c2C2CC2)CC1 [Compound 104, 8-cyclopropyl-7-(4-((2,3-dihydrobenzo[b][1,4]dioxin-6-yl-2,2,3,3-d4)oxy)piperidin-1-yl-4-d)-9-methyl-4H-pyrimido[1,2-b]pyridazin-4-one] | 87 | 5.85
Cc1cc(=O)n2nc(N3CC[C@@H](Oc4ccc5c(c4)OCCO5)[C@@H](F)C3)c(C)cc2n1 [Compound 33, 7-((3S,4R)-4-((2,3-dihydrobenzo[b][1,4]dioxin-6-yl)oxy)-3-fluoropiperidin-1-yl)-2,8-dimethyl-4H-pyrimido[1,2-b]pyridazin-4-one] | 117 | 7.40
[2H]C1([2H])Oc2ccc(OC3CCN(c4nn5c(=O)c(N6CCC6)cnc5cc4C)CC3)cc2OC1([2H])[2H] [Compound 35, 3-(azetidin-1-yl)-7-(4-((2,3-dihydrobenzo[b][1,4]dioxin-6-yl-2,2,3,3-d4)oxy)piperidin-1-yl)-8-methyl-4H-pyrimido[1,2-b]pyridazin-4-one] | 114 | 6.82
[2H]C1([2H])Oc2ccc(OC3CCN(c4nn5c(=O)ccnc5cc4C)CC3)cc2OC1([2H])[2H] [Compound 1, 7-(4-((2,3-Dihydrobenzo[b][1,4]dioxin-6-yl-2,2,3,3-d4)oxy)piperidin-1-yl)-8-methyl-4H-pyrimido[1,2-b]pyridazin-4-one] | 91 | 6.89
[2H]C1(Oc2ccc3c(c2)OCO3)CCN(c2nn3c(=O)ccnc3cc2C)CC1 [Compound 68, 7-(4-(benzo[d][1,3]dioxol-5-yloxy)piperidin-1-yl-4-d)-8-methyl-4H-pyrimido[1,2-b]pyridazin-4-one] | 91 | 6.54
Cc1cc2nccc(=O)n2nc1N1CC[C@@H](Oc2ccc3c(c2)OCCC3)[C@H](F)C1 [Compound 57, 7-((3R,4R)-4-(chroman-7-yloxy)-3-fluoropiperidin-1-yl)-8-methyl-4H-pyrimido[1,2-b]pyridazin-4-one] | 83 | 6.83
[2H]C1(Oc2ccc3c(c2)OCCO3)CCN(c2nn3c(=O)c(C)c(C)nc3cc2C)CC1 [Compound 60, 7-(4-((2,3-dihydrobenzo[b][1,4]dioxin-6-yl)oxy)piperidin-1-yl-4-d)-2,3,8-trimethyl-4H-pyrimido[1,2-b]pyridazin-4-one] | 91 | 7.55
[2H]C1([2H])Oc2ccc(OC3CCN(c4nn5c(=O)cc(COC)nc5cc4C)CC3)cc2OC1([2H])[2H] [Compound 14, 7-(4-((2,3-Dihydrobenzo[b][1,4]dioxin-6-yl-2,2,3,3-d4)oxy)piperidin-1-yl)-2-(methoxymethyl)-8-methyl-4H-pyrimido[1,2-b]pyridazin-4-one] | 101 | 7.66
[2H]C1([2H])Oc2ccc(OC3CCN(c4nn5c(=O)ccnc5c(C)c4C)CC3)cc2OC1([2H])[2H] [Compound 2, 7-(4-((2,3-Dihydrobenzo[b][1,4]dioxin-6-yl-2,2,3,3-d4)oxy)piperidin-1-yl)-8,9-dimethyl-4H-pyrimido[1,2-b]pyridazin-4-one] | 100 | 7.59
[2H]C1(Oc2ccc3c(c2)OC([2H])([2H])C([2H])([2H])O3)CCN(c2nn3c(=O)ccnc3c(C3CC3)c2C)CC1 [Compound 97, 9-cyclopropyl-7-(4-((2,3-dihydrobenzo[b][1,4]dioxin-6-yl-2,2,3,3-d4)oxy)piperidin-1-yl-4-d)-8-methyl-4H-pyrimido[1,2-b]pyridazin-4-one] | 78 | 6.37
[2H]C1([2H])Oc2ccc(OC3CCN(c4nn5c(=O)cc(C(F)(F)F)nc5c(C)c4C)CC3)cc2OC1([2H])[2H] [Compound 7, 7-(4-((2,3-Dihydrobenzo[b][1,4]dioxin-6-yl-2,2,3,3-d4)oxy)piperidin-1-yl)-8,9-dimethyl-2-(trifluoromethyl)-4H-pyrimido[1,2-b]pyridazin-4-one] | 93 | 7.15
[2H]C1(Oc2ccc3c(c2)OCCCO3)CCN(c2nn3c(=O)cc(C(F)(F)F)nc3cc2C)CC1 [Compound 64, 7-(4-((3,4-dihydro-2H-benzo[b][1,4]dioxepin-7-yl)oxy)piperidin-1-yl-4-d)-8-methyl-2-(trifluoromethyl)-4H-pyrimido[1,2-b]pyridazin-4-one] | 104 | 6.76
[2H]C1(Oc2ccc3c(c2)OCCO3)CCN(c2nn3c(=O)cc(C(F)F)nc3cc2C)CC1 [Compound 61, 2-(difluoromethyl)-7-(4-((2,3-dihydrobenzo[b][1,4]dioxin-6-yl)oxy)piperidin-1-yl-4-d)-8-methyl-4H-pyrimido[1,2-b]pyridazin-4-one] | 94 | 7.92
[2H]C1(Oc2ccc(C)cc2)CCN(c2nn3c(=O)ccnc3cc2C)CC1 [Compound 92, 8-methyl-7-(4-(p-tolyloxy)piperidin-1-yl-4-d)-4H-pyrimido[1,2-b]pyridazin-4-one] | 89 | 6.20
[2H]C1([2H])Oc2ccc(O[C@@H]3CCN(c4nn5c(=O)cc(COC)nc5c(C)c4C)C[C@@H]3F)cc2OC1([2H])[2H] [Compound 121, 7-((3S,4R)-4-((2,3-dihydrobenzo[b][1,4]dioxin-6-yl-2,2,3,3-d4)oxy)-3-fluoropiperidin-1-yl)-2-(methoxymethyl)-8,9-dimethyl-4H-pyrimido[1,2-b]pyridazin-4-one] | 111 | 7.38
[2H]C1(Oc2ccc3c(c2)OC([2H])([2H])C([2H])([2H])O3)CCN(c2nn3c(=O)cc(C(F)(F)F)nc3c(C)c2C)CC1 [Compound 95, 7-(4-((2,3-dihydrobenzo[b][1,4]dioxin-6-yl-2,2,3,3-d4)oxy)piperidin-1-yl-4-d)-8,9-dimethyl-2-(trifluoromethyl)-4H-pyrimido[1,2-b]pyridazin-4-one] | 87 | 7.14
[2H]C1(Oc2ccc3c(c2)OC([2H])([2H])C([2H])([2H])O3)CCN(c2nn3c(=O)ccnc3c(C)c2C)CC1 [Compound 69, 7-(4-((2,3-dihydrobenzo[b][1,4]dioxin-6-yl-2,2,3,3-d4)oxy)piperidin-1-yl-4-d)-8,9-dimethyl-4H-pyrimido[1,2-b]pyridazin-4-one] | 97 | 7.70
COc1c(C)c(N2CCC(Oc3ccc4c(c3)OCCO4)CC2)nn2c(=O)ccnc12 [Compound 126, 7-(4-((2,3-Dihydrobenzo[b][1,4]dioxin-6-yl)oxy)piperidin-1-yl)-9-methoxy-8-methyl-4H-pyrimido[1,2-b]pyridazin-4-one] | 109 | 6.38
[2H]C1([2H])Oc2ccc(OC3CCN(c4nn5c(=O)c(Cl)cnc5cc4C)CC3)cc2OC1([2H])[2H] [Compound 23, 3-chloro-7-(4-((2,3-dihydrobenzo[b][1,4]dioxin-6-yl-2,2,3,3-d4)oxy)piperidin-1-yl)-8-methyl-4H-pyrimido[1,2-b]pyridazin-4-one] | 91 | 7.36
Cc1ccc(OC2CCN(c3nn4c(=O)ccnc4c(C)c3C)CC2)cc1 [Compound 77, 8,9-dimethyl-7-(4-(p-tolyloxy)piperidin-1-yl)-4H-pyrimido[1,2-b]pyridazin-4-one] | 101 | 7.04
[2H]C1([2H])Oc2ccc(OC3CCN(c4nn5c(=O)cc(C)nc5c(C)c4C)CC3)cc2OC1([2H])[2H] [Compound 5, 7-(4-((2,3-Dihydrobenzo[b][1,4]dioxin-6-yl-2,2,3,3-d4)oxy)piperidin-1-yl)-2,8,9-trimethyl-4H-pyrimido[1,2-b]pyridazin-4-one] | 81 | 7.44
[2H]C1(Oc2ccc3c(c2)OC([2H])([2H])C([2H])([2H])O3)CCN(c2nn3c(=O)cc(C)nc3cc2C)CC1 [Compound 40, 7-(4-((2,3-dihydrobenzo[b][1,4]dioxin-6-yl-2,2,3,3-d4)oxy)piperidin-1-yl-4-d)-2,8-dimethyl-4H-pyrimido[1,2-b]pyridazin-4-one] | 118 | 7.22
[2H]C1([2H])Oc2ccc(O[C@@H]3CCN(c4nn5c(=O)cc(COC)nc5cc4C)C[C@H]3F)cc2OC1([2H])[2H] [Compound 125, 7-((3R,4R)-4-((2,3-dihydrobenzo[b][1,4]dioxin-6-yl-2,2,3,3-d4)oxy)-3-fluoropiperidin-1-yl)-2-(methoxymethyl)-8-methyl-4H-pyrimido[1,2-b]pyridazin-4-one] | 108 | 7.06
